Experiments:
C5a receptor = molecular target: T1, C5a receptor (Mus musculus, UniProt P30993); settings: cited from earlier work
T1 sequence (P30993 1-351): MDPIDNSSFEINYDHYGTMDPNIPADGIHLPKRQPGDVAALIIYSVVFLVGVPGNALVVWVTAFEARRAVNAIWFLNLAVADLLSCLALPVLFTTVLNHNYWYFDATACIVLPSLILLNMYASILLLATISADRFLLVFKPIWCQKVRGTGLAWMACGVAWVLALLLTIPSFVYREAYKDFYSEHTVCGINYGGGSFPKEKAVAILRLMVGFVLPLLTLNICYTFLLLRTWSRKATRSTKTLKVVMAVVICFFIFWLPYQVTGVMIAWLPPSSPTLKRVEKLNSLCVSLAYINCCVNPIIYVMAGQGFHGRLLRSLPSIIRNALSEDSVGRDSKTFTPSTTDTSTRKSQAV

[1] = in vivo; cited from earlier work
[2] = tested on: classical complement pathway; test: sheep erythrocyte lysis assay (complement-mediated lysis of sensitized sheep erythrocytes in normal human serum); type: cell-based; settings: for Inhibition of complement-mediated sheep erythrocyte lysis: 240 nM to 50 uM added to normal human serum, 37° C., 30 min, hemoglobin absorption at 412 nm
Experimental: FIG. 1. […] Various concentrations of pterostilbene, ranging from 240 nM to 50 uM were added to normal human serum, which was then incubated at 37° C. with sensitized sheep erythrocytes.
The lysis of the sheep erythrocytes is mediated by the classical complement pathway.
Various concentrations of pterostilbene, ranging from 240 nM to 50 uM were added to normal human serum, which was then incubated at 37° C. with sensitized sheep erythrocytes. After a 30 min incubation, the remaining unlysed erythrocytes were pelleted by centrifugation and the amount of hemoglobin released by cell lysis was quantified by absorption spectroscopy at wavelength of 412 nm. Inhibition of lysis indicates reduced complement activity. This is representative data from 3 separate experiments.

CA1 neurons = settings: in vivo; cited from earlier work

Compound	beta amyloid induced loss of MAP-2 (C5a receptor)	bioavailability [1]	Inhibition of complement-mediated sheep erythrocyte lysis [2]	protection of CA1 neurons from ischemia reperfusion damage (CA1 neurons)	concentration active to inhibit complement system ([2]; in human serum)	potency in the sheep erythrocyte lysis assay relative to the other stilbene ([2]; pterostilbene versus resveratrol)
PMX53	blocked					
Oc1ccc(C=Cc2cc(O)cc(O)c2)cc1 [Resveratrol]		poor bioavailability	active	protects CA1 neurons from ischemia reperfusion damage		
COc1cc(/C=C/c2ccc(O)cc2)cc(OC)c1 [CCB-695, pterostilbene]		superior pharmacokinetics and bioavailability	inhibition of complement-mediated sheep erythrocyte lysis		lower than 1 μM	greater potency than resveratrol

From patent US20190038571A1, “Orally Available Small Molecules to Inhibit the Function of the Complement System” (priority 2017, published 2019)
